# Measurements: ChEMBL document CHEMBL4419120, “Bitter taste receptors” (2015)
# The source made the active and inactive calls.
# Key:
# [1] = molecular target: T1, Taste receptor type 2 member 16 (Homo sapiens) (UniProt Q9NYV7); test: Activity at human TAS2R16 expressed in HEK293/15 cells assessed as threshold concentration of compound at which point receptor detects compounds by measuring calcium response by FLIPR assay; assay type: functional, cell-based
# T1 sequence (whole entry): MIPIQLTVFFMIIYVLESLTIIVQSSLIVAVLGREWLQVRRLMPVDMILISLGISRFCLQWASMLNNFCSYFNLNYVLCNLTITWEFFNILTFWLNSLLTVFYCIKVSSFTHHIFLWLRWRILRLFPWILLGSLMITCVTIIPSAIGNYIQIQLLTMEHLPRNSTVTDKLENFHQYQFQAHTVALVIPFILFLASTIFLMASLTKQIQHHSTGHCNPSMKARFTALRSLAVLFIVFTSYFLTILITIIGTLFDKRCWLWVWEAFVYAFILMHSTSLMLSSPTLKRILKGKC
# [2] = molecular target: T2, Taste receptor type 2 member 16 (Homo sapiens, UniProt Q9NYV7); test: Activity at human TAS2R16 expressed in HEK293/15 cells assessed as effect on calcium response by FLIPR assay; assay type: functional, cell-based
# T2 sequence (Q9NYV7 whole entry): T1 sequence (whole entry)
# [3] = molecular target: T1, Taste receptor type 2 member 16 (Homo sapiens); test: Activity at human TAS2R16 expressed in HEK-293T-Galpha16-gustducin44 cells assessed as threshold concentration of compound at which point receptor detects compounds by measuring calcium response by FLIPR assay; assay type: functional, cell-based
# [4] = molecular target: T2, Taste receptor type 2 member 16; test: Activity at human TAS2R16 expressed in HEK-293T-Galpha16-gustducin44 cells assessed as effect on calcium response by FLIPR assay; assay type: functional, cell-based
# [5] = molecular target: T3, Taste receptor type 2 member 38 (Homo sapiens) (UniProt P59533); test: Activity at human TAS2R38 expressed in HEK-293T-Galpha16-gustducin44 cells assessed as threshold concentration of compound at which point receptor detects compounds by measuring calcium response by FLIPR assay; assay type: functional, cell-based
# T3 sequence (whole entry): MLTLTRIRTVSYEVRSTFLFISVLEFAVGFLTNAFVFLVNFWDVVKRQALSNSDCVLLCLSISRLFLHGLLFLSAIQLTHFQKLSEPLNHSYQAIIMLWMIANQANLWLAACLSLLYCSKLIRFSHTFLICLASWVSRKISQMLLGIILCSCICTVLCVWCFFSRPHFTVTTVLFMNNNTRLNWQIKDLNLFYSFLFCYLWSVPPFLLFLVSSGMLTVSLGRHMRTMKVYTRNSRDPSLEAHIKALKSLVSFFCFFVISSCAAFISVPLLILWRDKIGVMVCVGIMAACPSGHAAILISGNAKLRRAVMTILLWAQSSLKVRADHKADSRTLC
# [6] = molecular target: T4, Taste receptor type 2 member 38 (Homo sapiens, UniProt P59533); test: Activity at human TAS2R38 expressed in HEK-293T-Galpha16-gustducin44 cells assessed as effect on calcium response by FLIPR assay; assay type: functional, cell-based
# T4 sequence (P59533 whole entry): T3 sequence (whole entry)
# [7] = test system: Homo sapiens; test: In-vivo activity at TAS2R16 in trained human taste panelists assessed as threshold concentration of compound at which point panelists detects bitterness intensity of compound in sensory panel room at 22 to 25 degC by triangle test with tap water as solvent; assay type: functional
# [8] = test system: Homo sapiens; test: In-vivo activity at TAS2R16 in trained human taste panelists assessed as detection of bitterness intensity of compound in sensory panel room at 22 to 25 degC by triangle test with tap water as solvent; assay type: functional, organism-based
# [9] = molecular target: T1, Taste receptor type 2 member 16 (Homo sapiens); test: Activity at human TAS2R16 expressed in HEK293/15 cells assessed as threshold concentration of compound at which point receptor detects compounds by measuring calcium response up to 100 mM by FLIPR assay; assay type: functional, cell-based
# [10] = molecular target: T1, Taste receptor type 2 member 16 (Homo sapiens); test: Activity at human TAS2R16 expressed in HEK293/15 cells assessed as effect on calcium response up to 100 mM by FLIPR assay; assay type: functional, cell-based
# [11] = molecular target: T5, Taste receptor type 2 member 10 (Homo sapiens) (UniProt Q9NYW0); test: Activity at human TAS2R10 expressed in HEK293/15 cells assessed as compound concentration showing threshold of activation on calcium response by FLIPR assay; assay type: functional, cell-based
# T5 sequence (whole entry): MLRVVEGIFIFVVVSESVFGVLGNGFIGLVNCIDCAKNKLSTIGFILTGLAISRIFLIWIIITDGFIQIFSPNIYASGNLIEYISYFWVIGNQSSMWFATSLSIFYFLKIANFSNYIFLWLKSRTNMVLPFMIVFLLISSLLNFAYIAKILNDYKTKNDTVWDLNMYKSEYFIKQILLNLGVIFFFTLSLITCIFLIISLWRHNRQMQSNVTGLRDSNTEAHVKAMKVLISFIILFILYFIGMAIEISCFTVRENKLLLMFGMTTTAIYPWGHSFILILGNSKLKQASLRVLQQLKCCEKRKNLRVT
# [12] = molecular target: T5, Taste receptor type 2 member 10 (Homo sapiens); test: Activity at human TAS2R10 expressed in HEK-293T-Galpha16-gustducin44 cells assessed as threshold concentration of compound at which point receptor detects compounds by measuring calcium response by FLIPR assay; assay type: functional, cell-based
# [13] = molecular target: T6, Taste receptor type 2 member 10 (Homo sapiens, UniProt Q9NYW0); test: Activity at human TAS2R10 expressed in HEK-293T-Galpha16-gustducin44 cells assessed as effect on calcium response by FLIPR assay; assay type: functional, cell-based
# T6 sequence (Q9NYW0 whole entry): T5 sequence (whole entry)
# [14] = molecular target: T7, Taste receptor type 2 member 14 (Homo sapiens) (UniProt Q9NYV8); test: Activity at human TAS2R14 expressed in HEK-293T-Galpha16-gustducin44 cells assessed as concentration of compound which reacts with receptor by measuring calcium response by FLIPR assay; assay type: functional, cell-based
# T7 sequence (whole entry): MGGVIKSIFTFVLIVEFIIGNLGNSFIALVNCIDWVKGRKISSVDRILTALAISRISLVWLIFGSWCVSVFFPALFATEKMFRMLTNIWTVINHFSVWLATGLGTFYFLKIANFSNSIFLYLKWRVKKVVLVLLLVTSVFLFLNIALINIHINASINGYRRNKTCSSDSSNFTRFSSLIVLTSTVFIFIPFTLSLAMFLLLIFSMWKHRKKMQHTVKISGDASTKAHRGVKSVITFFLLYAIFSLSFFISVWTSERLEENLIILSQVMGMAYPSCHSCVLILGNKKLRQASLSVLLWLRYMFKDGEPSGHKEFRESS
# [15] = molecular target: T3, Taste receptor type 2 member 38 (Homo sapiens); test: Activity at human TAS2R38 expressed in HEK-293T-Galpha16-gustducin44 cells assessed as concentration of compound which reacts with receptor by measuring calcium response by FLIPR assay; assay type: functional, cell-based
compound,measurement,setting,value
N#C[C@H](O[C@@H]1O[C@H](CO[C@@H]2O[C@H](CO)[C@@H](O)[C@H](O)[C@H]2O)[C@@H](O)[C@H](O)[C@H]1O)c1ccccc1 [AMYGDALIN],Activity,[1],2.3 mM
same,EC50,[2],20 mM
same,Activity,[3],2.3 mM
same,EC50,[4],20 mM
CCCc1cc(=O)[nH]c(=S)[nH]1 [PROPYLTHIOURACIL],Activity,[5],0.3 µM
same,EC50,[6],0.002 mM
CC(=S)Nc1ccccc1,Activity,[5],3 µM
same,EC50,[6],0.018 mM
CC(=N)S,Activity,[5],100 µM
OC[C@H]1O[C@H](Oc2ccccc2)[C@H](O)[C@@H](O)[C@@H]1O,Activity,[7],9 mM
same,EC50,[8],50 mM
same,Activity,[9],inactive
same,Activity,[10],inactive
OC[C@H]1O[C@@H](Oc2ccc(O)cc2)[C@H](O)[C@@H](O)[C@@H]1O [ARBUTIN],Activity,[1],0.5 mM
same,Activity,[7],0.9 mM
same,EC50,[2],5.8 mM
same,EC50,[8],5.4 mM
same,Activity,[3],0.5 mM
same,EC50,[4],5.8 mM
O=C1C[C@@H]2OCC=C3CN4CC[C@]56c7ccccc7N1[C@H]5[C@H]2[C@H]3C[C@H]46 [STRYCHNINE],Activity,[11],0.1 µM
same,Activity,[12],0.003 mM
same,EC50,[13],0.04 mM
O=c1ccc2cc(O[C@@H]3O[C@H](CO)[C@@H](O)[C@H](O)[C@H]3O)c(O)cc2o1 [ESCULIN],Activity,[1],4 mM
same,Activity,[7],4 mM
same,Activity,[3],4 mM
OCc1ccccc1O[C@@H]1O[C@H](CO)[C@@H](O)[C@H](O)[C@H]1O [SALICIN],Activity,[1],0.07 mM
same,Activity,[7],0.2 mM
same,EC50,[2],1.4 mM
same,EC50,[8],1.1 mM
same,Activity,[3],0.07 mM
same,EC50,[4],1.4 mM
CC(=O)NC(N)=S,Activity,[5],2 µM
same,EC50,[6],0.015 mM
O=c1cc[nH]c(=S)[nH]1 [THIOURACIL],Activity,[5],300 µM
same,EC50,[6],2 mM
O=[N+]([O-])c1ccc(O[C@@H]2O[C@H](CO)[C@@H](O)[C@H](O)[C@@H]2O)cc1,Activity,[3],1 to 3 mM
CN(C)C(=S)N(C)C,Activity,[5],10 to 30 µM
same,EC50,[6],0.1 mM
OC[C@H]1O[C@@H](Oc2ccc3ccccc3c2)[C@H](O)[C@@H](O)[C@@H]1O,Activity,[1],0.4 mM
same,Activity,[7],0.2 mM
same,EC50,[2],1 mM
same,EC50,[8],1.4 mM
same,Activity,[3],0.4 mM
same,EC50,[4],1 mM
OC[C@H]1O[C@@H](Oc2ccccc2)[C@H](O)[C@@H](O)[C@H]1O,Activity,[7],40 mM
same,Activity,[9],inactive
same,Activity,[10],inactive
O=[N+]([O-])c1ccccc1O[C@@H]1O[C@H](CO)[C@@H](O)[C@H](O)[C@H]1O,Activity,[1],1.5 mM
same,Activity,[3],0.3 to 1 mM
O=Cc1ccccc1O[C@@H]1O[C@H](CO)[C@@H](O)[C@H](O)[C@H]1O [HELICIN],Activity,[1],0.3 mM
same,Activity,[7],0.4 mM
same,EC50,[2],2.3 mM
same,EC50,[8],2.2 mM
same,Activity,[3],0.3 mM
same,EC50,[4],2.3 mM
CC[N+](CC)(CC(=O)Nc1c(C)cccc1C)Cc1ccccc1 [DENATONIUM BENZOATE],Activity,[12],0.003 mM
same,EC50,[13],0.07 mM
O=c1cc(-c2ccccc2)[nH]c(=S)[nH]1,Activity,[5],0.15 µM
same,EC50,[6],0.0005 mM
N[C@@H](Cc1ccc(O)cc1)C(=O)O,Activity,[14],1 mM
NC(=S)Nc1ccccc1 [PHENYLTHIOUREA],Activity,[5],0.3 µM
same,EC50,[6],0.002 mM
CC/N=C(/N)S,Activity,[5],30 µM
CNC(N)=S,Activity,[5],100 µM
same,EC50,[6],0.6 to 0.8 mM
O=[N+]([O-])c1ccc(O[C@@H]2O[C@H](CO)[C@@H](O)[C@H](O)[C@H]2O)cc1,Activity,[3],1 to 3 mM
CCNC(N)=S,EC50,[6],0.26 mM
S=C1NCCN1,Activity,[5],10 µM
O=C1CC(=O)NC(=S)N1,Activity,[15],10 mM
OC[C@H]1O[C@@H](Oc2ccccc2)[C@H](O)[C@@H](O)[C@@H]1O,Activity,[1],0.07 mM
same,Activity,[7],0.1 mM
same,EC50,[2],1.1 mM
same,EC50,[8],0.7 mM
same,Activity,[3],0.07 mM
same,EC50,[4],1.1 mM
CN(C)C=S,Activity,[5],10 µM
same,EC50,[6],0.055 mM
CO[C@@H]1O[C@H](CO)[C@@H](O)[C@H](O)[C@H]1O,Activity,[1],15 mM
same,Activity,[7],32 mM
same,Activity,[3],15 mM
same,EC50,[4],32 mM
COc1cc2c(cc1OC)[C@@]13CCN4CC5=CCO[C@H]6CC(=O)N2[C@H]1[C@H]6[C@H]5C[C@H]43 [BRUCINE],Activity,[11],Active
same,Activity,[12],0.01 mM
same,EC50,[13],0.06 mM
O=[N+]([O-])c1ccc(S[C@@H]2O[C@H](CO)[C@@H](O)[C@H](O)[C@H]2O)cc1,Activity,[3],1 to 5 mM
